Tests used:
[1] = total clearance after intravenous administration to rats; format: in vivo, Sprague–Dawley rats; settings: intravenous cassette dose 0.1 mg/kg, N = 3
[2] = ref Table S1; cited from earlier work
[3] = prediction of CLt,human by in vitro–in vivo extrapolation; parameters: species or system humans
[4] = prediction of CLt,human by physiologically based scaling using PXB-mice; parameters: species or system humans
[5] = fraction unbound in plasma, equilibrium dialysis; format: in vitro ADME, humans; settings: fraction unbound in human plasma
[6] = fraction unbound in plasma, equilibrium dialysis; format: in vitro ADME, Sprague–Dawley rat; settings: fraction unbound in rat plasma
[7] = total clearance after intravenous administration to PXB-mice; format: in vivo, PXB‐mice (chimeric mice with humanized livers); settings: intravenous cassette dose 0.1 mg/kg, N = 3, noncompartmental analysis
[8] = prediction of CLt,human by multispecies allometric scaling, rule of exponent
[9] = ref Table S1; cited from earlier work; remark: listed apart in the source
[10] = prediction of CLt,human by single-species allometric scaling from PXB-mice; parameters: species or system humans
[11] = humans; ref Table S1; cited from earlier work

Compound: CCNC(=O)OC1CCN(c2nncc3cc(OC)c(OC)cc23)CC1 [Carbazeran]
- CLt, Rats [1]: 42.22 mL/min/kg
- CLt, Monkeys [2]: 87.87 mL/min/kg
- Predicted CLt,human, IVIVE ([3]; from in vitro CLint per human hepatocyte, dispersion model): 15.5 mL/min/kg
- Fold error (predicted/observed), IVIVE ([3]; predicted/observed CLt,human): 0.41
- Predicted CLt,human, PXB‐PBS ([4]; from CLt in PXB-mice, dispersion model, CLint per hepatocyte assumed equal): 16.4 mL/min/kg
- Fold error (predicted/observed), PXB‐PBS ([4]; predicted/observed CLt,human): 0.44
- Predicted CLt,human, FCIM (from CLt in rats, monkeys and dogs and fu,p ratio rat/human): 7.6 mL/min/kg
- Fold error (predicted/observed), FCIM (predicted/observed CLt,human): 0.20
- f u,p, Humans [5]: 0.148
- f u,p, Rats [6]: 0.169
- CLt, PXB‐mice [7]: 99.67 mL/min/kg
- Predicted CLt,human, ROE ([8]; from CLt in rats, monkeys and dogs): 8.6 mL/min/kg
- Fold error (predicted/observed), ROE ([8]; predicted/observed CLt,human): 0.23
- CLt, Dogs [9]: 11.5 mL/min/kg
- Fold error (predicted/observed), PXB‐SSS ([10]; predicted/observed CLt,human): 0.34
- Predicted CLt,human, PXB‐SSS ([10]; scaled from CLt in PXB-mice, exponent 0.75): 12.8 mL/min/kg
- Observed CLt,human [11]: 37.6 mL/min/kg

From article PMC8742647 (Clinical and Translational Science, 2021)
